Measured values: US11577063B2, “Soluble microneedle containing ingredient for controlling release of neurotransmitters” (LG HOUSEHOLD & HEALTH CARE LTD., priority 2015, dated 2023)

Experiments:
[1] = target: SNARE complex (SNAP25, SynH3 and Vps proteins) (Homo sapiens, UniProt P60880+P63027+Q16623); assay: Inhibition of SNARE complex formation (SDS-PAGE); type: biochemical; conditions: FIG. 4; for ability of inhibiting SNARE complex formation compared with myricetin: at low concentrations; for inhibition of SNARE complex formation: polyphenol 1-50 ppm, room temperature 30 minutes, 12% SDS-PAGE
SNARE complex (SNAP25, SynH3 and Vps proteins), sequence (P60880 whole entry): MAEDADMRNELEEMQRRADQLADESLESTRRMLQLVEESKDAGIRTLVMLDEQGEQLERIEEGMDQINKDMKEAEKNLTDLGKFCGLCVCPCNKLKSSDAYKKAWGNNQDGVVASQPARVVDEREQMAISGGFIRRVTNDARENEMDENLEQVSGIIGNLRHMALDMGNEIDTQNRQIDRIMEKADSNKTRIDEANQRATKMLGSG
SNARE complex (SNAP25, SynH3 and Vps proteins), sequence (Q16623 191-266 limits assumed): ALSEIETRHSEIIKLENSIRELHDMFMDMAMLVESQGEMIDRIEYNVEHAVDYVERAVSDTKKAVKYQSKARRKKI
SNARE complex (SNAP25, SynH3 and Vps proteins), sequence (P63027 1-94 limits assumed): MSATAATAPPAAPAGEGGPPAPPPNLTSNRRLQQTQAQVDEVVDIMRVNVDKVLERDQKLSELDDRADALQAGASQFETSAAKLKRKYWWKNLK
Description: SDS-PAGE (sodium dodecyl sulfate-polyacrylamide gel electrophoresis) analysis was performed to investigate the inhibition of SNARE complex formation by polyphenols such as ampelopsin, kaempferol, myricetin, etc. It was investigated whether the SNARE complex formed when SNAP25, SynH3 and Vps proteins are mixed at a molar ratio of 1:1:1 was inhibited by the addition of the polyphenol compound at a concentration of 1-50 ppm. After adding the respective proteins dropwise into a 1-mL tube, the polyphenol compound was added and reaction was conducted at room temperature for 30 minutes. Then, it was investigated whether the SNARE complex was formed by electrophoresing on 12% SDS-PAGE.

[2] = system: C2C12 cells co-cultured with neuroblasts; assay: Inhibition of muscle contraction by polyphenols, C2C12 cells co-cultured with neuroblasts; type: cell-based; conditions: FIG. 7; for number of contractions of the C2C12 cells: 50 ppm polyphenol, 2 hours incubation, contractions counted for 30 seconds; for effect of inhibiting neurotransmitter release compared with myricetin: 50 ppm, 2 hours
Description: C2C12 cells were cultured in DMEM medium supplemented with 10% fetal calf serum and 1% antibiotic on a plate. Then, neuroblasts were co-cultured additionally on the same plate. When the C2C12 cells began contraction, the number of contractions by the C2C12 cells was measured for 30 seconds. Then, after completely removing the medium and washing 3 times with PBS, the cells were incubated for 2 hours after adding a calf serum-free medium and 50 ppm of the polyphenol compound. Then, the inhibition of muscle contraction was investigated by measuring the number of contractions of the C2C12 cells again for 30 seconds.

[3] = Maximum content of ampelopsin in cosmetic composition or microneedle; type: physicochemical
Description: When ampelopsin is prepared into a cosmetic composition, only less than 0.5% (based on 5% PEG-400 and 70% water) of ampelopsin can be contained in the cosmetic composition. In contrast, a microneedle prepared by the method according to the present disclosure may contain ampelopsin up to 5% based on the dry weight of the microneedle. Accordingly, a product containing the polyphenol at high concentration can be prepared.

[4] = system: muscle cells and neuroblasts co-culture; assay: Inhibition of muscle contraction in vitro by magnesium gluconate, co-cultured muscle cells and neuroblasts; type: cell-based; conditions: various concentrations, observed 10 minutes after treatment; FIG. 9
Description: After co-culturing muscle cells and neuroblasts in vitro and treating with magnesium gluconate at various concentrations, decrease in the number of muscle contractions was observed 10 minutes later.

ampelopsin content that can be contained in a cosmetic composition ([3]; based on 5% PEG-400 and 70% water) | ampelopsin content that the microneedle may contain ([3]; based on the dry weight of the microneedle) | Compound | ability of inhibiting SNARE complex formation compared with myricetin [1] | inhibition of SNARE complex formation [1] | number of contractions of the C2C12 cells [2] | effect of inhibiting neurotransmitter release compared with myricetin [2] | number of muscle contractions [4]
less than 0.5% | up to 5% | O=C1c2c(O)cc(O)cc2O[C@H](c2cc(O)c(O)c(O)c2)[C@H]1O [ampelopsin] | better ability of inhibiting SNARE complex formation at low concentrations | effectively inhibit the SNARE complex formation in a concentration-dependent manner | reduce the number of contractions of the C2C12 cells | relatively higher effect of inhibiting the release than myricetin | –
– | – | O=c1c(O)c(-c2ccc(O)cc2)oc2cc(O)cc(O)c12 [kaempferol] | better ability of inhibiting SNARE complex formation at low concentrations | effectively inhibit the SNARE complex formation in a concentration-dependent manner | reduce the number of contractions of the C2C12 cells | relatively higher effect of inhibiting the release than myricetin | –
– | – | O=c1c(O)c(-c2cc(O)c(O)c(O)c2)oc2cc(O)cc(O)c12 [myricetin] | – | effectively inhibit the SNARE complex formation in a concentration-dependent manner | reduce the number of contractions of the C2C12 cells | – | –
– | – | magnesium gluconate | – | – | – | – | significant decrease in the number of muscle contractions as the concentration of magnesium gluconate was increased
